Patent US10626144B2, “Peptide derivatives and uses thereof” (Nosopharm, priority 2014, dated 2020)
Numbered stars: 1 amine (or outer) side, 2 acyl side, 3 side chain; on linkers, the order of the positions; unused ones are H or OH. Square brackets hold non-standard residues; d marks the D form. Peptide text beside a SMILES is read from it. * marks the point of attachment. Phe(3,4-(OMe)2) = COc1ccc(C[C@H](N)C(=O)O)cc1OC; Phe(3-CONH2) = NC(=O)c1cccc(C[C@H](N)C(=O)O)c1; X6 = NC[C@@H](O)[C@@H](N[*:1])C(=O)[*:2]; Dab(3S-OH) = NC[C@H](O)[C@H](N)C(=O)O; Phe(2-F) = N[C@@H](Cc1ccccc1F)C(=O)O; ΔZArg = N=C(N)NCC/C=C(\N)C(=O)O; dOrn = NCCC[C@@H](N)C(=O)O; NH(CH2)4NH2 = NCCCCN*

Columns and labels:
Test in all cases: MIC, broth microdilution (CLSI), reference strain
Conditions in all cases: CAMHB
[1] = tested on: Pseudomonas aeruginosa ATCC 27853
[2] = tested on: Escherichia coli ATCC 25922
[3] = tested on: Staphylococcus aureus ATCC 13709
[4] = tested on: Acinetobacter baumannii ATCC 19606

## N=C(N)NCCC[C@@H](NC(=O)[C@H](CCCCN)NC(=O)[C@H](Cc1cnc[nH]1)NC(=O)[C@@H]1CCCN1C(=O)[C@@H](CCCN)NC(=O)CNC(=O)[C@@H](NC(=O)[C@@H](NC(=O)[C@@H](N)CCCCN)[C@@H](O)CN)[C@@H](O)CN)C(N)=O [22.30] (H-K[Dab(3S-OH)][Dab(3S-OH)]G[dOrn]PHK[dR]-NH2)
[1]
  Pa: MIC Pseudomonas aeruginosa ATCC 27853: − (>32 μg/mL)
[2]
  Ec: MIC Escherichia coli ATCC 25922: + (≤32 μg/mL)
[3]
  Sa: MIC Staphylococcus aureus ATCC 13709: ++ (≤8 μg/mL)
[4]
  Ab: MIC Acinetobacter baumannii ATCC 19606: − (>32 μg/mL)

## N=C(N)NCC/C=C(\NC(=O)[C@H](CCCCN)NC(=O)[C@H](Cc1cnc[nH]1)NC(=O)[C@@H]1CCCN1C(=O)[C@@H](CCCN)NC(=O)CNC(=O)[C@@H](NC(=O)[C@@H](NC(=O)[C@@H](N)CCCCN)[C@@H](O)CN)[C@@H](O)CN)C(N)=O [22.31] (H-K[Dab(3S-OH)][Dab(3S-OH)]G[dOrn]PHK[ΔZArg]-NH2)
[1]
  Pa: MIC Pseudomonas aeruginosa ATCC 27853: − (>32 μg/mL)
[2]
  Ec: MIC Escherichia coli ATCC 25922: ++ (≤8 μg/mL)
[3]
  Sa: MIC Staphylococcus aureus ATCC 13709: ++ (≤8 μg/mL)
[4]
  Ab: MIC Acinetobacter baumannii ATCC 19606: − (>32 μg/mL)

## N=C(N)NCC/C=C(\NC(=O)[C@H](CCCCN)NC(=O)[C@H](Cc1cnc[nH]1)NC(=O)[C@@H]1CCCN1C(=O)[C@@H](CCCN)NC(=O)CNC(=O)[C@H](NC(=O)[C@@H](NC(=O)[C@@H](N)CCCCN)[C@@H](O)CN)[C@H](O)CN)C(=O)N[C@@H](CCCCN)C(=O)NCCCCN [22.32] (H-K[Dab(3S-OH)][X6]G[dOrn]PHK[ΔZArg]K-{NH(CH2)4NH2})
[1]
  Pa: MIC Pseudomonas aeruginosa ATCC 27853: − (>32 μg/mL)
[2]
  Ec: MIC Escherichia coli ATCC 25922: − (>32 μg/mL)
[3]
  Sa: MIC Staphylococcus aureus ATCC 13709: ++ (≤8 μg/mL)
[4]
  Ab: MIC Acinetobacter baumannii ATCC 19606: − (>32 μg/mL)

## N=C(N)NCC/C=C(\NC(=O)[C@H](CCCCN)NC(=O)[C@H](Cc1ccccc1F)NC(=O)[C@@H]1CCCN1C(=O)[C@@H](CCCN)NC(=O)CNC(=O)[C@@H](NC(=O)[C@@H](NC(=O)[C@@H](N)CCCCN)[C@@H](O)CN)[C@@H](O)CN)C(=O)O [22.33] (H-K[Dab(3S-OH)][Dab(3S-OH)]G[dOrn]P[Phe(2-F)]K[ΔZArg]-OH)
[1]
  Pa: MIC Pseudomonas aeruginosa ATCC 27853: − (>32 μg/mL)
[2]
  Ec: MIC Escherichia coli ATCC 25922: ++ (≤8 μg/mL)
[3]
  Sa: MIC Staphylococcus aureus ATCC 13709: ++ (≤8 μg/mL)
[4]
  Ab: MIC Acinetobacter baumannii ATCC 19606: − (>32 μg/mL)

## COc1ccc(C[C@H](NC(=O)[C@@H]2CCCN2C(=O)[C@@H](CCCN)NC(=O)CNC(=O)[C@@H](NC(=O)[C@@H](NC(=O)[C@@H](N)CCCCN)[C@@H](O)CN)[C@@H](O)CN)C(=O)N[C@@H](CCCCN)C(=O)N/C(=C\CCNC(=N)N)C(=O)O)cc1OC [22.34] (H-K[Dab(3S-OH)][Dab(3S-OH)]G[dOrn]P[Phe(3,4-(OMe)2)]K[ΔZArg]-OH)
[1]
  Pa: MIC Pseudomonas aeruginosa ATCC 27853: − (>32 μg/mL)
[2]
  Ec: MIC Escherichia coli ATCC 25922: ++ (≤8 μg/mL)
[3]
  Sa: MIC Staphylococcus aureus ATCC 13709: ++ (≤8 μg/mL)
[4]
  Ab: MIC Acinetobacter baumannii ATCC 19606: − (>32 μg/mL)

## N=C(N)NCC/C=C(\NC(=O)[C@H](CCCCN)NC(=O)[C@H](Cc1cccc(C(N)=O)c1)NC(=O)[C@@H]1CCCN1C(=O)[C@@H](CCCN)NC(=O)CNC(=O)[C@@H](NC(=O)[C@@H](NC(=O)[C@@H](N)CCCCN)[C@@H](O)CN)[C@@H](O)CN)C(=O)O [22.35] (H-K[Dab(3S-OH)][Dab(3S-OH)]G[dOrn]P[Phe(3-CONH2)]K[ΔZArg]-OH)
[1]
  Pa: MIC Pseudomonas aeruginosa ATCC 27853: − (>32 μg/mL)
[2]
  Ec: MIC Escherichia coli ATCC 25922: − (>32 μg/mL)
[3]
  Sa: MIC Staphylococcus aureus ATCC 13709: − (>32 μg/mL)
[4]
  Ab: MIC Acinetobacter baumannii ATCC 19606: − (>32 μg/mL)
